Measured values as given in PubChem BioAssay AID1963828 (Molecular Pharmacology Branch, DTP, NCI, 2024).

System: 991263-137-R1-J2-PDC complex spheroid viability
Assay: Anticancer human tumor 991263-137-R1-J2-PDC patient-derived colon adenocarcinoma cell line growth inhibition [POLQ]
Settings: for IC50: curve of first compound; for viability, T/C: stronger effect = lower value
How it was run: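 PDC + HUVEC + MSC complex spheroids; POLQ inhibitors ± partner drugs; top conc. at/near clinical Cmax, else 10 microM (SN-38 1 microM), half-log dilutions; 37 degrees C, 5% CO2.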
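Note: spheroids exposed to compounds for 7 days before readout.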
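Throughout, for viability, T/C: 100% = DMSO vehicle control viability.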

COc1ccc([C@@H](O)c2cc(-c3ncnc4cc(N5CCOCC5)ccc34)c(F)cc2Cl)nn1 + Nc1ccc(C#CCN(C(=O)Cc2ncc(C(F)(F)F)cc2C(F)(F)F)c2ccc(F)cc2)nn1
IC50 (second compound 0.0316 µM): 5.34 µM
IC50 (second compound 0.1 µM): 4.8 µM
IC50 (second compound 0.316 µM): 6.69 µM
IC50 (second compound 1 µM): 5.15 µM
IC50 (second compound 3.16 µM): 4.04 µM
IC50 (second compound 10 µM): 2.96 µM
viability, T/C (second compound 0.0316 µM, first compound 0.0316 µM): 110%
viability, T/C (second compound 0.0316 µM, first compound 0.1 µM): 96.3%
viability, T/C (second compound 0.0316 µM, first compound 0.316 µM): 93.1%
viability, T/C (second compound 0.0316 µM, first compound 1 µM): 88.9%
viability, T/C (second compound 0.0316 µM, first compound 3.16 µM): 66.2%
viability, T/C (second compound 0.0316 µM, first compound 10 µM): 30.4%
viability, T/C (second compound 0.1 µM, first compound 0.0316 µM): 105%
viability, T/C (second compound 0.1 µM, first compound 0.1 µM): 120%
viability, T/C (second compound 0.1 µM, first compound 0.316 µM): 91.1%
viability, T/C (second compound 0.1 µM, first compound 1 µM): 85.6%
viability, T/C (second compound 0.1 µM, first compound 3.16 µM): 59.2%
viability, T/C (second compound 0.1 µM, first compound 10 µM): 33.8%
viability, T/C (second compound 0.316 µM, first compound 0.0316 µM): 100%
viability, T/C (second compound 0.316 µM, first compound 0.1 µM): 105%
viability, T/C (second compound 0.316 µM, first compound 0.316 µM): 96.5%
viability, T/C (second compound 0.316 µM, first compound 1 µM): 98.2%
viability, T/C (second compound 0.316 µM, first compound 3.16 µM): 87.9%
viability, T/C (second compound 0.316 µM, first compound 10 µM): 29.5%
viability, T/C (second compound 1 µM, first compound 0.0316 µM): 107%
viability, T/C (second compound 1 µM, first compound 0.1 µM): 101%
viability, T/C (second compound 1 µM, first compound 0.316 µM): 99.5%
viability, T/C (second compound 1 µM, first compound 1 µM): 93.7%
viability, T/C (second compound 1 µM, first compound 3.16 µM): 64.7%
viability, T/C (second compound 1 µM, first compound 10 µM): 29.6%
viability, T/C (second compound 3.16 µM, first compound 0.0316 µM): 97.1%
viability, T/C (second compound 3.16 µM, first compound 0.1 µM): 102%
viability, T/C (second compound 3.16 µM, first compound 0.316 µM): 87.1%
viability, T/C (second compound 3.16 µM, first compound 1 µM): 94%
viability, T/C (second compound 3.16 µM, first compound 3.16 µM): 55.5%
viability, T/C (second compound 3.16 µM, first compound 10 µM): 29.5%
viability, T/C (second compound 10 µM, first compound 0.0316 µM): 99.9%
viability, T/C (second compound 10 µM, first compound 0.1 µM): 95.6%
viability, T/C (second compound 10 µM, first compound 0.316 µM): 95.4%
viability, T/C (second compound 10 µM, first compound 1 µM): 82.5%
viability, T/C (second compound 10 µM, first compound 3.16 µM): 48%
viability, T/C (second compound 10 µM, first compound 10 µM): 28.6%
